From patent US20100119613A1, “PROCESS TO ACTIVATE EXTRACTS DERIVED FROM LIVING ORGANISMS USING LONG WAVE UV IRRADIATION AND COMPOSITIONS COMPRISING SAID ACTIVATED EXTRACT” (Medizinische Universitat Wien, priority 2007, published 2010)

Tests used:
Heme Oxygenase 1 (HO-1) = assay: HO-1 mRNA expression in dermal fibroblasts (qPCR); type: cell-based, human; conditions: for Effect on OxPAPC-mediated HO-1 induction: fibroblasts incubated with the ROS scavenger prior to exposure to OxPAPC; for HO-1 mRNA expression relative to non-treated control cells: dermal fibroblasts
Description: Neonatal Human Epidermal Keratinocytes (KC) derived from foreskin are obtained from Clonetics (San Diego, Calif.). Keratinocytes are cultured in keratinocyte growth medium (KGM) up to the fifth passage. Human neonatal skin fibroblasts (FB) are obtained from Cascade Biologics (Portland, Oreg.) and grown in Dulbecco's modified Eagle's medium, Gibco (Gaithersburg, Md.) supplemented with 10% fetal calf serum (FCS) and penicillin/streptomycin (1000 U per ml, Gibco) to sub-confluence.
RNA is isolated using Trizol reagent (Invitrogen). Nine hundred ng of total RNA are reverse-transcribed with murine leukemia virus reverse transcriptase (MuLV, Applied Biosystems, Foster City, Calif.) and oligo(dT) primers. The following forward (F) and reverse (R) primers are used: HO-1: F, 5′-[…]-3′; R, 5′-[…]-3′; B2M; F 5′-[…]-3′R,5′-[…]-3′ qPCR is performed using LightCycler technology and the Fast Start SYBR Green I kit (both Roche Applied Science, Basel, Switzerland). In all assays, cDNA is amplified using a standardized program (10-min denaturing step; 55 cycles of 5 s at 95° C., […], and 15 s at 72° C.; melting point analysis in 0.1° C. steps). Quantification of target gene expression is performed using a mathematical model by Pfaffl (Pfaffl, Nucleic Acids Res. 29, e45 (2001)). The expression of the target molecule is normalized to the expression of β-2 microglobulin.
PAPC is oxidized by exposure of the dry lipid to air for 72 h to generate OxPAPC. PAPC dried to a thin film on a glass support is irradiated with UVA-1 with 160 J/cm^2 to generate UV-PAPC. For treatment with singlet oxygen all lipids are vortexed in PBS containing 20 μM Rose Bengal and irradiated with 10 J/cm^2 UVA-1 (FIGS. 5 A,B) or under a commercial 35 W halogen lamp at a distance of 30 cm for 30 minutes (FIG. 5 C). The extent of oxidation was monitored by ESI-MS as described previously (Watson, J. Biol. Chem. 272, 13597-13607 (1997)). The UVA-1 irradiated lipids are solubilized, emulsified or suspended in the respective growth medium before skin cells or the skin equivalent are treated.
Human neonatal skin fibroblasts (FB) are obtained from Cascade Biologics (Portland, Oreg.) and grown in Dulbecco's modified Eagle's medium, Gibco (Gaithersburg, Md.) supplemented with 10% fetal calf serum (FCS) and penicillin/streptomycin (1000 U per ml, Gibco) to sub-confluence.
Fibroblasts are treated with autoxidized PAPC, UVA-1 treated PAPC or UVA-1 untreated PAPC (100 μg/ml) as described in Example 1. Total RNA is isolated after 4 hours from treated cells and untreated control cells.
Relative expression of HO-1 mRNA in dermal fibroblasts is determined 4 h after stimulation with lipids or extracts as specified above using quantitative real-time PCR (qPCR). Normalization is standardized by comparison to the expression of the housekeeping gene beta-2-microglobulin (B2M) as described in Example 1.
Fibroblasts are treated with lipids or extract as described in Example 1 relating to treatment with oxPAPC. Total RNA is isolated 4 h after stimulation with 100 μg/ml of lipids or extract.

HO-1 = conditions: literature (Ishikawa 1997); cited from earlier work
[1] = lipid not irradiated with UVA-1 in the presence of RB (FIG. 5B)
[2] = TLC fractions of OxPAPC and synthetic phospholipids (FIG. 2)

Compound: O=C1O[C@H]([C@@H](O)CO)C(O)=C1O [vitamin C]
- Effect on OxPAPC-mediated HO-1 induction (Heme Oxygenase 1 (HO-1)): did not significantly reduce

Compound: CCCCCCCC/C=C\CCCCCCCC(=O)O[C@H](COC(=O)CCCCCCCCCCCCCCC)COP(=O)([O-])OCC[N+](C)(C)C [POPC, 1-palmitoyl-2-oleoyl-sn-3-glycerophosphorylcholine]
- HO-1 mRNA expression relative to non-treated control cells (Heme Oxygenase 1 (HO-1); [1]): did not induce Heme Oxygenase 1 (HO-1) mRNA expression

Compound: c1ccc(P(c2ccccc2)c2ccccc2)cc1 [TPP, triphenylphosphine]
- Effect on capacity of OxPAPC to induce HO-1 expression (Heme Oxygenase 1 (HO-1); OxPAPC treated with triphenylphosphine (not shown)): only slightly reduced

Compound: CCCCCCCCCCCCCCCC(=O)OC[C@H](COP(=O)(O)OCC[N+](C)(C)C)OC(=O)CCCC=O [POVPC, 1-palmitoyl-2-(5-oxovaleroyl)-sn-glycero-3-phosphorylcholine]
- HO-1 mRNA expression relative to non-treated control cells (Heme Oxygenase 1 (HO-1); [2]): failed to induce HO-1 expression

Compound: CCCCCCCCCCCCCCCC(=O)OC[C@H](COP(=O)([O-])OCC[N+](C)(C)C)OC(=O)CCCC(=O)O [PGPC, 1-palmitoyl-2-glutaroyl-sn-glycero-3-phosphorylcholine]
- HO-1 mRNA expression relative to non-treated control cells (Heme Oxygenase 1 (HO-1); [2]): failed to induce HO-1 expression

Compound: CCCCC/C=C\C/C=C\CCCCCCCC(=O)O[C@H](COC(=O)CCCCCCCCCCCCCCC)COP(=O)([O-])OCC[N+](C)(C)C [PLPC, 1-palmitoyl-2-linoleyl-sn-3-glycerophosphorylcholine]
- HO-1 mRNA expression relative to non-treated control cells (Heme Oxygenase 1 (HO-1); [1]): did not induce Heme Oxygenase 1 (HO-1) mRNA expression

Compound: vitamin E
- Effect on OxPAPC-mediated HO-1 induction (Heme Oxygenase 1 (HO-1)): did not significantly reduce

Compound: CCCCCCCCCCCCCC(=O)OC[C@H](COP(=O)([O-])OCC[N+](C)(C)C)OC(=O)CCCCCCCCCCCCC [DMPC, di-myristoyl-phosphorylcholine]
- HO-1 mRNA expression relative to non-treated control cells (Heme Oxygenase 1 (HO-1); [2]): failed to induce HO-1 expression

Compound: 1-palmitoyl-2-(epoxyisoprostane E2)-sn-glycero-3-phosphorylcholine [PEIPC]
- HO-1 expression (HO-1): strong inducer of HO-1 expression

Compound: CCCCCCCCCCCCCCCC(=O)OC[C@@H](O)COP(=O)([O-])OCC[N+](C)(C)C [LysoPC, 1-palmitoyl-2-lyso-sn-glycero-3-phosphorylcholine]
- HO-1 mRNA expression relative to non-treated control cells (Heme Oxygenase 1 (HO-1); [2]): failed to induce HO-1 expression

Compound: CC1=C(/C=C/C(C)=C/C=C/C(C)=C/C=C/C=C(C)/C=C/C=C(C)/C=C/C2=C(C)CCCC2(C)C)C(C)(C)CCC1 [β-carotene]
- Effect on OxPAPC-mediated HO-1 induction (Heme Oxygenase 1 (HO-1)): did not significantly reduce
